# Measurements as given in PubChem BioAssay (NCI).
#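 All cell lines were grown in 96-well plates and treated with compound for 48 hours. GI50 = concentration required for 50% inhibition of growth. TGI: total growth inhibition.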
# How the values were obtained:
# Experiment in all cases: inhibition of tumour cell growth, NCI panel, 48 h
# U251 CNS = system: U251 CNS
# DU-145 prostate = system: DU-145 prostate
# MOLT-4 leukemia = system: MOLT-4 leukemia
# SNB-75 CNS = system: SNB-75 CNS
# MCF7 breast = system: MCF7 breast
# SF-539 CNS = system: SF-539 CNS
# SK-OV-3 ovarian = system: SK-OV-3 ovarian
# MDA-MB-435 = system: MDA-MB-435
# 786-0 renal = system: 786-0 renal
# ACHN renal = system: ACHN renal
# UACC-257 melanoma = system: UACC-257 melanoma
# SF-295 CNS = system: SF-295 CNS
# SK-MEL-28 melanoma = system: SK-MEL-28 melanoma
# K-562 leukemia = system: K-562 leukemia
# KM12 colon = system: KM12 colon
# MALME-3M melanoma = system: MALME-3M melanoma
# NCI-H226 lung = system: NCI-H226 lung
# TK-10 renal = system: TK-10 renal
# BT-549 breast = system: BT-549 breast
# HCT-15 colon = system: HCT-15 colon
# PC-3 prostate = system: PC-3 prostate
# MDA-MB-231 breast = system: MDA-MB-231 breast
# RXF 393 renal = system: RXF 393 renal
# T-47D breast = system: T-47D breast
# NCI/ADR-RES ovarian = system: NCI/ADR-RES ovarian
# OVCAR-4 ovarian = system: OVCAR-4 ovarian
# SF-268 CNS = system: SF-268 CNS
# SN12C renal = system: SN12C renal
# SNB-19 CNS = system: SNB-19 CNS
smiles,measurement,setting,value
CN(C)CCCNC(=O)c1cc(NC(=O)c2cc(NC(=O)c3ccc(/C=C/c4ccccc4)cc3)cn2C)cn1C,GI50,U251 CNS,5.36 µM
same,TGI,U251 CNS,10.7 µM
same,GI50,DU-145 prostate,11.5 µM
same,TGI,DU-145 prostate,> 31.3 µM
same,GI50,MOLT-4 leukemia,7.27 µM
same,TGI,MOLT-4 leukemia,25.9 µM
same,GI50,SNB-75 CNS,1.98 µM
same,TGI,SNB-75 CNS,24.6 µM
same,GI50,MCF7 breast,1.71 µM
same,TGI,MCF7 breast,6.85 µM
same,GI50,SF-539 CNS,5.41 µM
same,TGI,SF-539 CNS,10.9 µM
same,GI50,SK-OV-3 ovarian,17.6 µM
same,TGI,SK-OV-3 ovarian,> 31.3 µM
same,GI50,MDA-MB-435,8.48 µM
same,TGI,MDA-MB-435,> 31.3 µM
same,GI50,786-0 renal,9.14 µM
same,TGI,786-0 renal,> 31.3 µM
same,GI50,ACHN renal,11.5 µM
same,TGI,ACHN renal,> 31.3 µM
same,GI50,UACC-257 melanoma,10.5 µM
same,TGI,UACC-257 melanoma,> 31.3 µM
same,GI50,SF-295 CNS,8.56 µM
same,TGI,SF-295 CNS,> 31.3 µM
same,GI50,SK-MEL-28 melanoma,15.2 µM
same,TGI,SK-MEL-28 melanoma,> 31.3 µM
same,GI50,K-562 leukemia,5.83 µM
same,TGI,K-562 leukemia,19 µM
same,GI50,KM12 colon,7.16 µM
same,TGI,KM12 colon,18.5 µM
same,GI50,MALME-3M melanoma,7.41 µM
same,TGI,MALME-3M melanoma,> 31.3 µM
same,GI50,NCI-H226 lung,9.93 µM
same,TGI,NCI-H226 lung,> 31.3 µM
same,GI50,TK-10 renal,12.1 µM
same,TGI,TK-10 renal,> 31.3 µM
same,GI50,BT-549 breast,4.28 µM
same,TGI,BT-549 breast,16.5 µM
same,GI50,HCT-15 colon,7.26 µM
same,TGI,HCT-15 colon,25.7 µM
same,GI50,PC-3 prostate,10.1 µM
same,TGI,PC-3 prostate,> 31.3 µM
same,GI50,MDA-MB-231 breast,8.81 µM
same,TGI,MDA-MB-231 breast,> 31.3 µM
same,GI50,RXF 393 renal,3.2 µM
same,TGI,RXF 393 renal,19 µM
same,GI50,T-47D breast,6.01 µM
same,TGI,T-47D breast,> 31.3 µM
same,GI50,NCI/ADR-RES ovarian,7.76 µM
same,TGI,NCI/ADR-RES ovarian,24.3 µM
same,GI50,OVCAR-4 ovarian,16.1 µM
same,TGI,OVCAR-4 ovarian,> 31.3 µM
same,GI50,SF-268 CNS,10.6 µM
same,TGI,SF-268 CNS,> 31.3 µM
same,GI50,SN12C renal,7.41 µM
same,TGI,SN12C renal,> 31.3 µM
same,GI50,SNB-19 CNS,16.7 µM
same,TGI,SNB-19 CNS,> 31.3 µM
